The results in this text go back to ChEMBL document CHEMBL4813914, “Tackling Antimicrobial Resistance with Small Molecules Targeting LsrK: Challenges and Opportunities” (J Med Chem, 2020).

In general, pIC50 refers to the negative decadic logarithm of the IC50, by convention in mol/L.

The nature of test [1]: Inhibition of Salmonella typhimurium LsrK expressed in Escherichia coli MET1158 in presence of DPD by kinase-glo max luminescent assay. Details: species or system Salmonella enterica subsp. enterica serovar Typhimurium.
A short description of test [2]: Inhibition of LsrK expressed in Escherichia coli JW5503 harboring plasmid pET-Plsrlux assessed as reduction in autoinducer2-mediated quorum sensing activation by luminescence method.
A short description of test [3]: Inhibition of Salmonella typhimurium LsrK expressed in Escherichia coli MET1158 incubated for 30 mins followed by DPD and ATP addition and measured after 15 mins by kinase-glo max luminescent assay. Details: species or system Salmonella enterica subsp. enterica serovar Typhimurium.
Test [4] is described as follows: Inhibition of LsrK expressed in Escherichia coli LW7 pLW11 harboring assessed as reduction in autoinducer2-mediated quorum sensing by measuring beta-galactosidase expression by luminescence method.

pIC50: −log10 of the molar value.

`COc1ccc(Nc2cc(C(F)(F)F)ccc2Cl)c(C(=O)O)c1`: the pIC50 in test [1] is 4.17. For the compound `Cc1[nH]c(C(=O)N(Cc2ccccc2)c2nc3ccc(NC(=O)C(=O)O)cc3s2)c(Cl)c1Cl`, the figures for the pIC50 in test [2] and in test [1] were 6.00 and 4.54, respectively. Consider `Cc1c(Cl)cccc1Nc1ccccc1C(=O)O` [TOLFENAMIC ACID], for which, in test [1], the negative logarithm of the IC50 (pIC50) was 4.15. The same measure, in the same setting: to `Cc1ccc(Cl)c(Nc2ccccc2C(=O)O)c1Cl` [MECLOFENAMIC ACID] belongs 3.75. For `O=C1C=CC(=C(c2ccc(O)cc2)c2ccc(O)cc2)C=C1` [AURIN], the negative logarithm of the IC50 (pIC50) in test [3] was 6.00; in test [4] it was 4.85. In turn, `CC1=C(O)C(=O)C=C2C1=CC=C1[C@@]2(C)CC[C@@]2(C)[C@@H]3C[C@](C)(C(=O)O)CC[C@]3(C)CC[C@]12C` [CELASTROL] showed a pIC50 in test [3] of 5.52. `O=C(O)c1ccccc1Nc1ccc(Cl)cc1`: the pIC50 in test [1] is 3.85. Consider `O=C(Nc1ccc(C2=N[C@@H](C(=O)O)CO2)cc1)c1cc(Br)c(Br)[nH]1`, for which the pIC50 in test [2] was 4.77; in test [1], 4.11.

As for `O=C(O)c1ccccc1Nc1cccc(Cl)c1`, the pIC50 in test [1] is 3.92. For `O=C(O)C(=O)Nc1ccc2nc(N(Cc3ccccc3)C(=O)c3cc(Br)c(Br)[nH]3)sc2c1`, the pIC50 is 5.00 in test [2] and 4.74 in test [1]. The matching figures for `O=C(O)CC(=O)Nc1ccc2nc(N(Cc3ccccc3)C(=O)c3cc(Br)c(Br)[nH]3)sc2c1`: 6.40 and 4.82. For the compound `COc1cc(C)c2c(c1C=O)Oc1c(c(C)c(O)c3c1C(O)OC3=O)OC2=O` (stereo not given) [STICTIC ACID], the pIC50 in test [3] was 5.52.

Regarding `O=C(O)C(=O)N[C@H]1CCc2nc(NC(=O)c3cc(Br)c(Br)[nH]3)sc2C1`, the pIC50 in test [2] is 5.70; in test [1], 3.83. Take `O=C(O)c1c(Cl)c(Cl)c(Cl)c(Cl)c1Nc1cc(Cl)c(Cl)c(Cl)c1Cl`: the pIC50 in test [1] was 4.92.

On to `O=C(O)c1ccc(O)c2ncccc12`, for which the pIC50 in test [1] is 3.53. Turning to `O=C(O)C(=O)Nc1nc2ccc(NC(=O)c3cc(Br)c(Br)[nH]3)cc2s1`, the figures for the negative logarithm of the IC50 (pIC50) in test [2] and in test [1] were 6.22 and 4.74, respectively.

In the case of `O=C(O)c1ccc(Cl)cc1Nc1ccccc1`, the pIC50 in test [1] is 4.52. Compound `O=C(O)C1=CC(=C(c2ccc(O)c(C(=O)O)c2)c2ccc(O)c(C(=O)O)c2)C=CC1=O` [AURINTRICARBOXYLIC ACID] had a negative-log IC50 (pIC50) in test [3] of 6.00.
